Results as given in paper PMC4922569, “Antifibrotic Effects of the Dual CCR2/CCR5 Antagonist Cenicriviroc in Animal Models of Liver and Kidney Fibrosis” (PLoS ONE, 2016).

What was measured:
[1] = test system: monocyte/macrophage recruitment; assay: Thioglycollate (TG)-induced mouse model of peritonitis: peritoneal lavage monocyte/macrophage counts; assay type: in vivo; details: dexamethasone 1 mg/kg QD PO Days 1-5; 48 h post-TG
Protocol: A murine thioglycollate (TG)-induced model of peritonitis, where acute inflammation induced by intraperitoneal (IP) injection of TG results in a rapid increase in monocyte/macrophage migration into the peritoneal cavity, was employed to assess the effects of CVC on cell recruitment in vivo. The protocol was approved by the IACUC of Charles River Laboratories Preclinical Services, Montreal (PCS-MTL). The care and use of animals was conducted in accordance with the guidelines of the US National Research Council and the Canadian Council on Animal Care.
Male C57BL/6 mice (n = 44; 8–10 weeks of age; Charles River Laboratories, Canada) were allocated to receive treatments via oral gavage (PO) on Days 1–5 in the following groups: non-disease control, vehicle control twice daily (BID), CVC 5 mg/kg/day (CVC5) BID, CVC 20 mg/kg/day (CVC20) BID, CVC 100 mg/kg/day (CVC100) BID, CVC20 QD, and positive control dexamethasone (corticosteroid known to reduce inflammation in a variety of animal models) 1 mg/kg QD (S1 Table). On Day 4, peritonitis was induced via IP injection of TG 3.85% (1 mL/animal) 2 hours post-dose in all groups except non-disease controls. Study endpoints included: peritoneal lavage cell counts and pharmacokinetic (PK) evaluation. Animals were sacrificed 48 hours post-TG injection by isoflurane inhalation, and peritoneal lavage and blood samples (0.7 mL) were collected. Differential cell counts were assessed in peritoneal lavage samples using an Advia® Hematology System (Siemens Healthcare Diagnostics, USA) with multispecies software and an analysis software designed for mouse peritoneal fluid on Advia® 120 (LabThruPut, USA). A 0.3 mL aliquot of the blood sample was processed to plasma for PK analysis.
(§1) In the peritonitis mouse model, one-way analysis of variance with post-hoc Dunnett’s test was performed, using GraphPad Prism® (GraphPad Software, Inc., USA), on differential cell counts obtained from lavage in treatment groups versus the vehicle-control group. For the ex vivo migration of mouse monocytes, statistical significance was determined by a Student’s t test.

[2] = test system: CCL2-mediated chemotaxis of activated murine macrophages (F4/80+/CD11b+); assay: Ex vivo CCL2-induced chemotaxis of activated mouse macrophages (Transwell); assay type: cell-based; details: CCL2-stimulated cells (1 nM CCL2), no CVC, 2 hours
Protocol: Mouse monocyte migration in response to CVC treatment was assessed ex vivo in triplicate. TG was injected intraperitoneally into male C57BL/6 mice (n = 3; 8–10 weeks of age; Jackson Laboratory, USA) and activated macrophages were collected 48 hours later by peritoneal lavage. Chemotaxis was assayed using a Transwell® Chamber (Costar, USA) with a 5 μm-pore size polycarbonate filter, as previously described. Briefly, cells were incubated for 2 hours in the presence of 1 nM CCL2 and/or 1 μM CVC (dissolved in dimethyl sulfoxide with 0.5% acetic acid and diluted 1:1000 with serum-free Roswell Park Memorial Institute-1640 medium and 0.5% bovine serum albumin). Cells were harvested from the lower compartment and analyzed by flow cytometry to enumerate F4/80^+CD11b^+ macrophages using a 3-laser BD FACSCanto™ (BD Biosciences, Canada). Results were analyzed using FlowJo software (Tree Star Inc., USA).
as §1

| Compound | Decrease in peritoneal lavage monocyte/macrophage counts compared to vehicle control [1] [%] | Average fold change in migrating cells (±SD) compared to untreated and unstimulated cells [2] [fold] |
| --- | --- | --- |
| C[C@@H]1C[C@H]2[C@@H]3CCC4=CC(=O)C=C[C@]4(C)[C@@]3(F)[C@@H](O)C[C@]2(C)[C@@]1(O)C(=O)CO [dexamethasone, reference compound] | 38.1 |  |
| CCL2: C-C chemokine ligand type 2, chemotaxis stimulus for activated macrophages [reference compound] |  | 4.6±0.9 |
